Measurements reported in publication PMC6395679, “Efficient cell penetration and delivery of peptide nucleic acids by an argininocalix[4]arene” (Scientific Reports, 2019).

How the values were obtained:
[1] = system: miR-221-3p; experiment: RT-qPCR hybridization to miR-221-3p probe; format: cell-based, human; conditions: U251 cells, 48 hours, calixarene 1 at 2.5 μM, PNAs at 2 μM
Experimental: The human glioma U251 cells[50] were cultured in humidified atmosphere of 5% CO2/air in RPMI-1640 medium (Gibco, Life Technologies, Monza, Italy) supplemented with 10% (v/v) fetal bovine serum (FBS, Biowest, Nuaillé, France), 100 units/mL penicillin and 100 µg/mL streptomycin (Pen-Strep, Sigma-Aldrich, Saint Louis, Missouri, USA). All PNA transfection procedures were performed under the conditions described here below. Briefly, a mixture constituted by RPMI-1640 medium containing calixarene 1 at 2.5 µM final concentration, and 2 µM PNA was prepared and incubated for 20 minutes at room temperature, without serum. After the incubation, 10% (v/v) of FBS was added. […]
For miRNAs quantification, obtained RNA was reverse transcribed using TaqMan MicroRNA Reverse Transcription Kit (Applied Biosystems, Foster City, CA, USA) and miRNA specific stem-loop primer (hsa-miR-96-5p, ID: 000186; hsa-miR-155-5p, ID: 002623; hsa-miR-210-3p, ID: 000512; hsa-miR-221-3p, ID: 000524). Reverse transcription quantitative polymerase-chain reaction (RT-qPCR) was performed according to the manufacturer’s protocols and as indicated elsewhere. […] The relative expression was calculated using the comparative cycle threshold method (ΔΔCT) and U6 snRNA (hsa U6 snRNA, ID:001973) and hsa-let-7c (hsa-let-7c, ID:000379) as endogenous controls. […]

[2] = system: U251 cells; experiment: Effects on cell growth (cell number/ml, Z2 Coulter Counter); format: cell-based, human; conditions: after 72 hours of cell culture, effect of 1 significant only at 10 µM, lipofectamine within 0.5–12 μl/ml
Experimental: (§1) Cell viability after the transfection with 1 was evaluated with Muse Count & Viability Kit (Millipore, Billerica, Massachusetts, USA), using Muse Cell Analyser (Millipore, Billerica, Massachusetts, USA). To perform analysis, 50 µL of suspension cells were added to 225 µL of Muse Count & Viability Reagent, the solution was incubated at room temperature for 5 minutes, protected from the light and then 1 × 10^3 events were analysed using Muse Cell Analyser (Millipore, Billerica, Massachusetts, USA). The effects on cell growth were studied by determining the cell number/ml using a Z2 Coulter Counter (Coulter Electronics, Hialeah, FL, USA). The effects of calixarene 1 on cell viability, cell growth and cell morphology were compared to those of Lipofectamine RNAiMAX (Invitrogen, Monza, Italy).
(§2) Comparison was done with the effects of lipofectamine analyzed after 72 hours of cell culture. […] These findings are in agreement with the cell morphology profile shown in Fig. 2(D–F) and determined by microscopic inspection after 72 hours of cell culture in the presence of 2.5 µM calixarene 1 (Fig. 2E), 3μL/mL lipofectamine (Fig. 2F) or in the absence of both the delivery systems (Fig. 2D).

[3] = system: U251 cells; experiment: Cell morphology by microscopic inspection; format: cell-based, human; conditions: 72 hours of cell culture, 2.5 µM calixarene 1 or 3μL/mL lipofectamine
Experimental: as §1, §2

[4] = system: Fl-a221PNA; experiment: Fluorescence titration of Fl-a221PNA with calixarene 1; format: binding; conditions: Fl-a221PNA 2 μM, HEPES 16 mM, NaCl 40 mM, pH 7.4, λex = 494 nm, 1 added stepwise up to 9.9 μM
Experimental: For a fast evaluation of the interaction with PNA, fluorescently labelled Fl-a221PNA (Fl: Fluorescein) was diluted to a final concentration of 2 μM in buffer (HEPES 16 mM, NaCl 40 mM, pH 7.4) and placed in a fluorescence cuvette; to this, a concentrated solution of the argininocalix[4]arene 1 (100 μM in EtOH/H2O/DMSO = 2/2/1 v/v/v) was added stepwise (up to a final concentration of 9.9 μM of calixarene), and changes in the fluorescein emission intensity (with λex = 494 nm) were measured after each addition. Correction for lamp fluctuation was performed by measuring the fluorescence of a standard 2 μM fluorescein solution after each spectra; this correction and that for dilution were performed using the formula: Fi, corr = Fi,obs × (Fin /Fi) × (Vi /Vin), where Fi: intensity at the ith point and Fin: initial intensity of the fluorescein standard, Vi: total volume at the ith point and Vin: initial volume.
In order to rule out that the observed delivery was solely due to permeabilization of cells caused by the argininocalixarene, without interaction between the carrier and the PNA, Fl-a221PNA was titrated in vitro in buffer by adding 1 and measuring the changes in fluorescence emission (Fig. 4). […] A slight shift of the fluorescence maximum (from 519 to 523 nm) was also observed, consistent with a more polar microenvironment generated by the cationic calixarene.

[5] = system: U251 cells; experiment: Cell viability assay (Muse Count & Viability Kit); format: cell-based, human; conditions: in contact for all the treatment time
Experimental: The human glioma U251 cells[50] were cultured in humidified atmosphere of 5% CO2/air in RPMI-1640 medium (Gibco, Life Technologies, Monza, Italy) supplemented with 10% (v/v) fetal bovine serum (FBS, Biowest, Nuaillé, France), 100 units/mL penicillin and 100 µg/mL streptomycin (Pen-Strep, Sigma-Aldrich, Saint Louis, Missouri, USA). All PNA transfection procedures were performed under the conditions described here below. Briefly, a mixture constituted by RPMI-1640 medium containing calixarene 1 at 2.5 µM final concentration, and 2 µM PNA was prepared and incubated for 20 minutes at room temperature, without serum. After the incubation, 10% (v/v) of FBS was added. Cell culture medium was removed and replaced with the transfection mixture, which was maintained in contact with cells until the end of the treatment.
as §1
One of the major issues associated with the use of commercial available vehicles is the high toxicity of these compounds. For such reason 1 was first evaluated for its effect on cell viability when used to transfect molecules. […] Viability profile was determined at three different time points, 24, 48 and 72 hours after transfection, with three different concentrations of […], 1.25, 2.5, and 10 μM. […]

Q: For tetraargininocalix[4]arene [compound 1], which “effect on miR-221-3p hybridization signal” value [1] is on record?
A: Its value is “no effects”.

Q: What about the “effect on cell proliferation (cell growth)” value [2] of the same substance?
A: The value was “minor”.

Q: And the “effect on cell morphology” value [3]?
A: Its value is “does not affect cell morphology”.

Q: And the “concentration of carrier at saturation of fluorescence quenching” value [4]?
A: The value was 2.5 µM.

Q: And the “percentage of total live cells” value ([5]; 1.25 µM of 1, 24 hours after the transfection)?
A: Its value is “no differences”.

Q: What about the “percentage of total live cells” value ([5]; 2.5 µM of 1, 24 hours after the transfection) of the same substance?
A: Its value is “no differences”.

Q: What about the live cells percentage ([5]; 10 µM of 1, 24 hours after the transfection) of the same substance?
A: Its live cells percentage is “slight decrease”.
